These results are taken from patent publication US6585987B1, “Complexes of hyaluronic acid/carnitines and pharmaceutical and cosmetic compositions” (Continental Projects Limited, priority 1998, dated 2003).

Experiment [1] deals with Dithranol induced inflammation. Kind of experiment: Antiinflammatory activity on dithranol induced cutaneous inflammation. In kind it is in vivo, Guinea pigs. The settings on record: 48 hours. The text has this:
A specific cutaneous inflammatory reaction, caused by different phlogogenic factors both of exogenous and endogenous origin, including the formation of free radicals, lipoperoxides, prostaglandins and cytokines, is that induced by intradermal injection of dithranol, as described by Mustakallio (Mustakallio K., DERMATOVENER, 54, 125, 1979).
Dithranol is intradermally injected at the dose of 20 mcg on the back of shaved Guinea pigs.
On the opposite side of the back, before the injection of the same amount of dithranol, HA alone or acetyl-L-carnitine (AC) alone, or HA and AC together or the HA and AC complex, are spread.
A mixture of lanolin and ethylene glycol monostearate was used to spread these compounds.

Another experiment relates to ornithinedecarboxylase. The experiment is described as follows: Increase of ornithinedecarboxylase activity induced by theleocidin in skin. In kind it is in vivo, mice. The settings on record: epidermis five hours after. The method, then:
These skin alterations increase the ornithinedecarboxylase enzyme, and this increase is related to the severity of the induced cutaneous damage.
In these experiences, theleocidin is injected on mice back shaved skin at a dosage of 5 mcg/mouse dissolved in 0.2 cc of solution.
HA and AC either administered alone, or together or in the form of a complex according to the invention, are spread five minute's before theleocidin on the backs of the animals. Ornithinedecarboxylase is dosed on the homogenised epidermis of the animals five hours after the theleocidin injection, according to the method by O'Brien and Nakadate (O'Brien T. G., Cancer Res., 35, 1662, 1975—Nakadate T. Cancer Res., 42, 2841, 1982). Protein concentration of an epidermis extract is evaluated following the method described by Lowry (Lowry O. H., J. Biol. Chem., 193, 265, […]).

For experiment [2], the system named is barrier function of corneal epithelium. The experiment is described as follows: Clinical trial in dry eye syndrome: barrier function of corneal epithelium (fluorescein test, fluorophotometry). Type of experiment: in vivo, human. The settings on record: 27 dry eye patients, collyrium for 4 weeks; improvement after 2 weeks in lower cornea areas, 4 weeks in central ones. From the text:
Dryness of the conjunctiva, isolated or in association with other ocular or extra-ocular disease, is recognizedly capable of inducing local damage on corneal epithelium which can, inter alia, lose its barrier function. […] According to the protocol, each patient received for 4 weeks a medication (hyaluronic acid) in the form of collyrium in one eye and a different treatment (hyaluronic acid/carnitine) in the other eye, so that each patient also acted as the control. Subjective evaluation and clinical examinations, associated with a fluorescein test, were carried out 2 weeks after the beginning of the treatment as well as at its end (4 weeks).

Experiment [3] concerns trophic ulcers of lower limbs. Kind of experiment: Clinical trial in trophic ulcers of lower limbs, topical treatment. Type of experiment: in vivo, human. The note with it: for number of patients with VERY GOOD result: 30 patients; for overall results compared with the combination (in words): same treatment time. The procedure:
The used protocol is the following one:
1) Topical administrations of a combination of hyaluronic acid and carnitine (1:1 by weight), or of carnitine alone or of hyaluronic acid alone, previous humidification of the lesion with saline for a time of 10 minutes. In the first treatments, it is possible to use hyaluronic acid at a higher concentration than carnitine, to promote ulcer cleansing. In the following treatments, such concentrations of the two molecules have been used as to better make use of the role of carnitine in normalizing tissue trophism. Treatment usually started during hospitalization and was subsequently continued at the nalgesic therapy clinic.
Patients enrolled in this trial came from Medicine and Surgery Departments, where they unsuccessfully received various medical treatments (mesoglycan, Connectivine, mucopolysaccharides).
18 females and 12 males were treated, of age from 62 to 80 years, with trophic ulcers of various size and at different sites, anyhow on limbs or feet.
Results were scored as follows: VERY GOOD, when the ulcer healed completely; GOOD, when an at least 50% reduction of the lesion was attained; NULL, when no significant changes of the lesion occurred after 30 day-treatment.

The subject of experiment [4] is cartilage explants. The experiment is described as follows: PG and HA synthesis in cartilage explants (pulse studies, 3H-glucosamine). Type of experiment: cell-based, human. The method, then: (§1) Thirty-five subjects were included in the study. Exclusion criteria were septicaemia, connective tissue disordes, rheumatoid arthritis, crystal deposition diseases, known hereditary or congenital defects, immobilization for several weeks as well as treatment with corticosteroids and cytotoxic drugs.
(§2) Tissue specimens obtained from each donor were cut into pieces of 3-6 mg in Dulbecco's modified Eagle's medium (DMEM) supplemented with penicillin (5.000 i.u. ml^−1) The tissue was washed 3 times with this culture medium. Cartilage pieces were taken at random, weighed and distributed into the different wells of multiwell culture plates (typically between 30 and 60 mg tissue/well). Extra pieces were not cultured but stored at −20° C. in order to assess the initial proteoglycans (PG) and HA contents of the cartilage. Culture medium supplemented with 20% (v/v) foetal calf serum (culture medium A) was then added to each well and the culture plates were placed in a 90%: 10% (v/v) air: CO2 humidified incubator for 48 h at 37° C.
(§3) For each experiment the cartilage from one individual was used and tissue cultures were conducted in triplicate: that is, for the control culture as well as for each HA, Acetyl-carnitine (ALC) or HA+ALC, 3 cartilage explants were cultured separately. Reported values are the mean of the triplicate cultures.
After 2 day of culture, the culture medium was aspirated and the explants were washed 3 times with 1 ml of DMEM. Explants were resuspended in 5% FCS culture medium (1 ml 50 mg^−1 tissue) supplemented with ^3H-glucosamine (50 μCi ml^−1) (culture medium B). To each well, a solution of HA, Acetyl-carnitine (ALC) or HA+ALC, was added ([…] in culture medium) to achieve the final concentration of 100 μg of HA and 100 μg of ALC. Control culture received medium alone. Culture wells were then incubated for 12 h. […]
(§4) The Econo-Pak Q column (5 ml) was pre-equilibrated in buffer A at a flow rate of 2 ml min^−1. […] Fractions of 2 ml were collected and assayed for radioactivity. […]

The test system of experiment [5] is cartilage explants. The experiment is described as follows: Net loss of labelled PG and HA from cartilage explants (chase studies). Type of experiment: cell-based, human. The method, then: as §1, §2, §3
After one day of culture in medium A, the cartilage pieces were aspirated free of medium, washed 3 times with 1 ml of DMEM, resuspended in culture medium B (1 ml 50 mg^−1 tissue) and cultured for 12 h. After pulse labelling, the cartilage pieces were washed with DMEM and resuspended in culture medium A. Medium alone or the appropriate molecules (HA, ALC or HA+ALC) dissolved in medium were added to each well (10 μl ml^−1) as stated above and a non-radioactive chase period was conducted for 24 h. […]
as §4

Setting [6] is: 100 μg of HA and/or 100 μg of ALC, 12 h pulse.

As for hyaluronic acid [HA], in experiment [1] (10 mg spread on skin before dithranol 20 mcg intradermal), the “% inhibition of phlogistic area compared with controls” value was determined as 39 ± 1.6%. Also, the “% inhibition of phlogistic area compared with controls” value in experiment [1] (50 mg spread on skin before dithranol 20 mcg intradermal) was found to be 38 ± 2.9%. For the same compound, the “inhibition of the inflammation area induced by dithranol” value in experiment [1] (dose not stated) is “about 30%”. The ornithinedecarboxylase activity in the experiment with ornithinedecarboxylase (10 mg spread five minutes before theleocidin 5 mcg/mouse) is listed as 21 ± 2.8 nmol of CO2/60 min./mg protein. In addition, the ornithinedecarboxylase activity in the experiment with ornithinedecarboxylase (50 mg spread five minutes before theleocidin 5 mcg/mouse) was 31 ± 4.1 nmol of CO2/60 min./mg protein. The “symptoms and barrier function of corneal epithelium (in words)” value in experiment [2] is reported as “did not provide significant advantages”. In experiment [3] (30 day-treatment), the “patients with GOOD result (at least 50% reduction of the lesion)” value is recorded as 16% and the “number of patients with VERY GOOD result” value is on record as “in no patients”. For the same compound, the “overall results compared with the combination (in words)” value in experiment [3] was “remarkably poorer”. Further, in the experiment with cartilage explants [4] (setting [6]), the “HA synthesis d.p.m. [^3H] HA × 10^3/h/mg OH/proline” value is 4.5 ± 0.93 d.p.m. [^3H] HA × 10^3/h/mg OH/proline and the “PG synthesis d.p.m. [^3H] PG × 10^3/h/mg OH/proline” value was 39.2 ± 9.2 d.p.m. [^3H] PG × 10^3/h/mg OH/proline. Moreover, in the experiment on cartilage explants [4] (text summary of Table 4), the “PG and HA synthesis (in words)” value is listed as “slight increase”. Also, in the experiment with cartilage explants [5] (24 h chase, Table 5), the “net loss of labelled PGs and HA (in words)” value is reported as “reduced only the net loss of labelled HA”. Moreover, in the experiment on cartilage explants [5] (24 h non-radioactive chase), the “% of radiolabelled molecules recovered in the media, [^3H] HA Loss/24 h” value worked out at 28.0 ± 6.09% and the “% of radiolabelled molecules recovered in the media, [^3H] PG Loss/24 h” value was found to be 20.1 ± 7.5%.

`C[N+](C)(C)C[C@H](O)CC(=O)[O-]` [L-Carnitine, L-carnitine]: in experiment [3] (30 day-treatment), the “number of patients with VERY GOOD result” value is recorded as “in no patients”. In addition, the “overall results compared with the combination (in words)” value in experiment [3] was “remarkably poorer”.
